# In patent US20060088545A1, “Use of inhibitors of the protease of the human immunodeficiency virus (hiv) to block cell migration and/or invasion, tissue infiltration and oedema for the therary of diseases associated therewith” (priority 2001, published 2006):
# Tested on: angiogenesis induced by bFGF or VEGF in the chorioallantoic membrane
# Method: CAM assays were performed with 1 mm^3 sterilized gelatin sponges (Gelfoam; Upjohn Co, Kalamazoo, Mich.) adsorbed with bFGF or VEGF (1 μg or 100 ng, respectively) in 5 μl of PBS, and with buffer, HIV-PI (10 μM) or taxol (250 nM) (Bristol-Myers Squibb Co., Princeton, N.J.) as described (Ribatti et al, Int. J. Dev. Biol., 1996). CAM were examined daily until day 12 under an Olympus SZX9 stereomicroscope. Images (1024×1024 pixels) were captured at a distance of 2 mm from the edge of the sponge using a cooled digital CCD Hamamatsu ORCA camera (Hamamatsu Photonics Italia, Arese, Italy). Vessel number was quantified with the ImageProPlus 4.0 imaging software (Media Cybernetics, Silver Spring, Md.) in 3 randomly selected areas per egg ([…]).
# Results are expressed as the average number of vessels/mm^2±SD from the indicated number of CAM per experimental condition.
smiles,measurement,setting,value
"CC(=O)O[C@H]1C(=O)[C@@]2(C)[C@H]([C@H](OC(=O)c3ccccc3)[C@]3(O)C[C@H](OC(=O)[C@H](O)[C@@H](NC(=O)c4ccccc4)c4ccccc4)C(C)=C1C3(C)C)[C@]1(OC(C)=O)CO[C@@H]1C[C@@H]2O [Taxol, taxol]",Average vessel (number/mm^2 ± SD),"bFGF 1 μg, HIV-PI 10 μM, taxol 250 nM",7.71 ± 1.63 number/mm^2
same,basal CAM vascularization,drug administered alone,did not affect
same,toxicity in CAM,in vivo,not associated with toxicity
